Results as given in PubChem BioAssay (NCI).
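A five-concentration, 48-hour dose response in 96-well plates underlies each endpoint, interpolated linearly between surrounding concentrations. TGI is the concentration that stops growth completely.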

Legend:
Experiment in all cases: inhibition of tumour cell growth, NCI panel, 48 h
SK-MEL-28 melanoma = test system: SK-MEL-28 melanoma
NCI-H226 lung = test system: NCI-H226 lung
COLO 205 colon = test system: COLO 205 colon
T-47D breast = test system: T-47D breast
NCI-H460 lung = test system: NCI-H460 lung
MDA-MB-435 = test system: MDA-MB-435
SF-268 CNS = test system: SF-268 CNS
NCI/ADR-RES ovarian = test system: NCI/ADR-RES ovarian
MDA-MB-231 breast = test system: MDA-MB-231 breast
HOP-92 NSCLC = test system: HOP-92 NSCLC
LOX IMVI melanoma = test system: LOX IMVI melanoma
SF-539 CNS = test system: SF-539 CNS
SN12C renal = test system: SN12C renal
SF-295 CNS = test system: SF-295 CNS
MOLT-4 leukemia = test system: MOLT-4 leukemia
SK-OV-3 ovarian = test system: SK-OV-3 ovarian
SK-MEL-5 melanoma = test system: SK-MEL-5 melanoma
HCC-2998 colon = test system: HCC-2998 colon
MCF7 breast = test system: MCF7 breast
SNB-19 CNS = test system: SNB-19 CNS
ACHN renal = test system: ACHN renal
EKVX NSCLC = test system: EKVX NSCLC
UACC-62 melanoma = test system: UACC-62 melanoma
SK-MEL-2 melanoma = test system: SK-MEL-2 melanoma
CCRF-CEM leukemia = test system: CCRF-CEM leukemia
UO-31 renal = test system: UO-31 renal
A549 NSCLC = test system: A549 NSCLC
MDA-N = test system: MDA-N
OVCAR-3 ovarian = test system: OVCAR-3 ovarian
CAKI-1 renal = test system: CAKI-1 renal
BT-549 breast = test system: BT-549 breast
UACC-257 melanoma = test system: UACC-257 melanoma
SNB-75 CNS = test system: SNB-75 CNS
OVCAR-8 ovarian = test system: OVCAR-8 ovarian
DU-145 prostate = test system: DU-145 prostate
RPMI-8226 leukemia = test system: RPMI-8226 leukemia
NCI-H522 lung = test system: NCI-H522 lung
KM12 colon = test system: KM12 colon
HL-60(TB) leukemia = test system: HL-60(TB) leukemia
IGROV1 ovarian = test system: IGROV1 ovarian
U251 CNS = test system: U251 CNS
HCT-15 colon = test system: HCT-15 colon
HT29 colon = test system: HT29 colon
HCT-116 colon = test system: HCT-116 colon
TK-10 renal = test system: TK-10 renal
HS 578T breast = test system: HS 578T breast
786-0 renal = test system: 786-0 renal
RXF 393 renal = test system: RXF 393 renal
M14 melanoma = test system: M14 melanoma
NCI-H23 lung = test system: NCI-H23 lung
SW-620 colon = test system: SW-620 colon
MALME-3M melanoma = test system: MALME-3M melanoma
OVCAR-4 ovarian = test system: OVCAR-4 ovarian
OVCAR-5 ovarian = test system: OVCAR-5 ovarian
A498 renal = test system: A498 renal
HOP-62 NSCLC = test system: HOP-62 NSCLC
PC-3 prostate = test system: PC-3 prostate
K-562 leukemia = test system: K-562 leukemia
SR leukemia = test system: SR leukemia

With `COC(=O)C1OC(O[C@H]2CC[C@]3(C)[C@H]4CC=C5[C@@H]6CC(C)(C)CC[C@]6(C(=O)OC6OCC(O)C(O)C6OC6OC(C)C(OC7OCC(OC8OCC(O)C(O)C8O)C(O)C7O)C(O)C6O)[C@H](O)C[C@@]5(C)[C@]4(C)CC[C@H]3C2(C)C)C(O)C(O)C1O` (stereo partly drawn) the TGI (SK-MEL-28 melanoma) was 4.24 µM, the TGI (NCI-H226 lung) was 6.23 µM and the TGI (COLO 205 colon) was 3.09 µM. It also gave a TGI (T-47D breast) of 13.2 µM, a TGI (NCI-H460 lung) of 32.5 µM and a TGI (MDA-MB-435) of 3.58 µM. The TGI (SF-268 CNS) was 13.9 µM, the TGI (NCI/ADR-RES ovarian) was 21.1 µM and the TGI (MDA-MB-231 breast) was 9.33 µM. The TGI (HOP-92 NSCLC) was 4.77 µM, the TGI (LOX IMVI melanoma) was 22 µM and the TGI (SF-539 CNS) was over 100 µM. For the same molecule, the TGI (SN12C renal) was 3.36 µM, the TGI (SF-295 CNS) was 8.66 µM and the TGI (MOLT-4 leukemia) was over 100 µM. For the same molecule, the TGI (SK-OV-3 ovarian) was 28.1 µM, the TGI (SK-MEL-5 melanoma) was 11.6 µM and the TGI (HCC-2998 colon) was 3.06 µM. For the same molecule, the TGI (MCF7 breast) was 6.63 µM, the TGI (SNB-19 CNS) was 8.09 µM and the TGI (ACHN renal) was 11.9 µM. The TGI (EKVX NSCLC) was 5.86 µM, the TGI (UACC-62 melanoma) was 10.6 µM and the TGI (SK-MEL-2 melanoma) was 10.1 µM. It also gave a TGI (CCRF-CEM leukemia) of over 100 µM, a TGI (UO-31 renal) of 3.56 µM and a TGI (A549 NSCLC) of 9.63 µM. It also gave a TGI (MDA-N) of 3.44 µM, a TGI (OVCAR-3 ovarian) of 20.9 µM and a TGI (CAKI-1 renal) of 11.7 µM. For the same molecule, the TGI (BT-549 breast) was 4.4 µM, the TGI (UACC-257 melanoma) was 13.1 µM and the TGI (SNB-75 CNS) was 11.3 µM. For the same molecule, the TGI (OVCAR-8 ovarian) was 13.2 µM, the TGI (DU-145 prostate) was 16.9 µM and the TGI (RPMI-8226 leukemia) was over 50.7 µM. For the same molecule, the TGI (NCI-H522 lung) was 7.76 µM, the TGI (KM12 colon) was 14.2 µM and the TGI (HL-60(TB) leukemia) was over 26.9 µM. It also gave a TGI (IGROV1 ovarian) of 9.34 µM, a TGI (U251 CNS) of 18.2 µM and a TGI (HCT-15 colon) of 22.7 µM. For the same molecule, the TGI (HT29 colon) was 8.9 µM, the TGI (HCT-116 colon) was 12.9 µM and the TGI (TK-10 renal) was 22.5 µM. For the same molecule, the TGI (HS 578T breast) was 13 µM, the TGI (786-0 renal) was 20.2 µM and the TGI (RXF 393 renal) was 25.8 µM. It also gave a TGI (M14 melanoma) of 3.56 µM, a TGI (NCI-H23 lung) of 6.53 µM and a TGI (SW-620 colon) of 11.8 µM. The TGI (MALME-3M melanoma) was 14.5 µM, the TGI (OVCAR-4 ovarian) was 21.6 µM and the TGI (OVCAR-5 ovarian) was 8.01 µM. It also gave a TGI (A498 renal) of 3.94 µM, a TGI (HOP-62 NSCLC) of 13 µM and a TGI (PC-3 prostate) of 15.5 µM.

For `Nc1nc(Nc2ccccc2)sc1C(=O)c1c[nH]c2ccccc12`, the TGI (SK-MEL-28 melanoma) was 26.3 µM, the TGI (NCI-H226 lung) was 29.7 µM and the TGI (COLO 205 colon) was 17.1 µM. For the same molecule, the TGI (T-47D breast) was 33.3 µM, the TGI (NCI-H460 lung) was 13.6 µM and the TGI (MDA-MB-435) was 23.2 µM. It also gave a TGI (SF-268 CNS) of 33.8 µM, a TGI (NCI/ADR-RES ovarian) of 44.7 µM and a TGI (MDA-MB-231 breast) of 32.3 µM. It also gave a TGI (HOP-92 NSCLC) of 33.2 µM, a TGI (LOX IMVI melanoma) of 64.8 µM and a TGI (SF-539 CNS) of 27.4 µM. It also gave a TGI (SN12C renal) of 34.4 µM, a TGI (MOLT-4 leukemia) of 25.8 µM and a TGI (SK-OV-3 ovarian) of 32.8 µM. It also gave a TGI (SK-MEL-5 melanoma) of 25.1 µM, a TGI (K-562 leukemia) of 56.7 µM and a TGI (MCF7 breast) of 26.9 µM. For the same molecule, the TGI (SNB-19 CNS) was 20.3 µM, the TGI (ACHN renal) was 62.2 µM and the TGI (EKVX NSCLC) was 27.4 µM. It also gave a TGI (UACC-62 melanoma) of 28.9 µM, a TGI (SK-MEL-2 melanoma) of 29.8 µM and a TGI (CCRF-CEM leukemia) of 14.5 µM. For the same molecule, the TGI (UO-31 renal) was 13.1 µM, the TGI (A549 NSCLC) was 23.7 µM and the TGI (MDA-N) was 25.3 µM. It also gave a TGI (OVCAR-3 ovarian) of 26.6 µM, a TGI (BT-549 breast) of 29.8 µM and a TGI (UACC-257 melanoma) of 22.6 µM. For the same molecule, the TGI (DU-145 prostate) was 22.5 µM, the TGI (RPMI-8226 leukemia) was over 100 µM and the TGI (KM12 colon) was 24.4 µM. It also gave a TGI (SR leukemia) of 5.12 µM, a TGI (HL-60(TB) leukemia) of 46.2 µM and a TGI (IGROV1 ovarian) of 31.2 µM. For the same molecule, the TGI (U251 CNS) was 23.6 µM, the TGI (HCT-15 colon) was 14.7 µM and the TGI (HT29 colon) was 14.6 µM. The TGI (HCT-116 colon) was 19.5 µM, the TGI (TK-10 renal) was 11 µM and the TGI (HS 578T breast) was 42.5 µM. It also gave a TGI (786-0 renal) of 18.2 µM, a TGI (RXF 393 renal) of 23.1 µM and a TGI (M14 melanoma) of 20.6 µM. It also gave a TGI (NCI-H23 lung) of 49.2 µM, a TGI (SW-620 colon) of 31.2 µM and a TGI (MALME-3M melanoma) of 34.5 µM. It also gave a TGI (OVCAR-4 ovarian) of 23.5 µM, a TGI (OVCAR-5 ovarian) of 24.9 µM and a TGI (A498 renal) of 30.6 µM. It also gave a TGI (HOP-62 NSCLC) of 30.9 µM and a TGI (PC-3 prostate) of 25.3 µM.

`S=C1CC(c2ccccc2)Sc2ccc(Cl)cc2N1` (stereo not drawn) gave a TGI (SK-MEL-28 melanoma) of over 100 µM, a TGI (NCI-H226 lung) of over 100 µM and a TGI (COLO 205 colon) of over 100 µM. The TGI (T-47D breast) was over 100 µM, the TGI (NCI-H460 lung) was over 100 µM and the TGI (MDA-MB-435) was over 100 µM. It also gave a TGI (SF-268 CNS) of over 100 µM, a TGI (NCI/ADR-RES ovarian) of over 100 µM and a TGI (MDA-MB-231 breast) of over 100 µM. For the same molecule, the TGI (LOX IMVI melanoma) was over 100 µM, the TGI (SN12C renal) was over 100 µM and the TGI (SF-295 CNS) was 92.6 µM. It also gave a TGI (MOLT-4 leukemia) of over 100 µM, a TGI (SK-OV-3 ovarian) of over 100 µM and a TGI (SK-MEL-5 melanoma) of over 100 µM. The TGI (K-562 leukemia) was over 100 µM, the TGI (MCF7 breast) was over 100 µM and the TGI (SNB-19 CNS) was over 100 µM. For the same molecule, the TGI (ACHN renal) was over 100 µM, the TGI (EKVX NSCLC) was over 100 µM and the TGI (UACC-62 melanoma) was over 100 µM. For the same molecule, the TGI (CCRF-CEM leukemia) was over 100 µM, the TGI (UO-31 renal) was over 100 µM and the TGI (A549 NSCLC) was over 100 µM. It also gave a TGI (MDA-N) of over 100 µM, a TGI (OVCAR-3 ovarian) of over 100 µM and a TGI (CAKI-1 renal) of over 100 µM. It also gave a TGI (BT-549 breast) of over 100 µM, a TGI (UACC-257 melanoma) of over 100 µM and a TGI (SNB-75 CNS) of over 100 µM. The TGI (OVCAR-8 ovarian) was over 100 µM, the TGI (DU-145 prostate) was over 100 µM and the TGI (RPMI-8226 leukemia) was over 100 µM. The TGI (NCI-H522 lung) was over 100 µM, the TGI (KM12 colon) was over 100 µM and the TGI (SR leukemia) was over 100 µM. It also gave a TGI (HL-60(TB) leukemia) of over 100 µM, a TGI (IGROV1 ovarian) of over 100 µM and a TGI (U251 CNS) of over 100 µM. It also gave a TGI (HCT-15 colon) of over 100 µM, a TGI (HT29 colon) of over 100 µM and a TGI (HCT-116 colon) of over 100 µM. The TGI (TK-10 renal) was over 100 µM, the TGI (HS 578T breast) was 48.3 µM and the TGI (786-0 renal) was 59.5 µM. For the same molecule, the TGI (RXF 393 renal) was 25.7 µM, the TGI (M14 melanoma) was over 100 µM and the TGI (NCI-H23 lung) was over 100 µM. For the same molecule, the TGI (MALME-3M melanoma) was over 100 µM, the TGI (OVCAR-4 ovarian) was over 100 µM and the TGI (OVCAR-5 ovarian) was over 100 µM. The TGI (HOP-62 NSCLC) was over 100 µM and the TGI (PC-3 prostate) was over 100 µM.
